Our source for the IC50 and minimal effective dose values is ChEMBL document CHEMBL1124880 (J Med Chem, 1990).

The species entered for test [1] is Rattus norvegicus. In words: Evaluated for Ca++ independent phosphodiesterase activity. Type of test: functional.
A further test deals with Phosphodiesterase 1 (Rattus norvegicus, UniProt Q63421+Q9EPR9+Q01066). The experiment in a line: Evaluated for Ca++ dependent phosphodiesterase activity. Type of test: functional.
For test [2], the species on record is Rattus norvegicus. The experiment in a line: Minimal effective dose in an rat anti-immobility effect using behavioral despair test. The conditions noted are these: read-out: MED. Type of test: functional.
A further test addresses T1, Adenosine receptor A1 (Rattus norvegicus, UniProt P25099).
T1 sequence (P25099 whole entry): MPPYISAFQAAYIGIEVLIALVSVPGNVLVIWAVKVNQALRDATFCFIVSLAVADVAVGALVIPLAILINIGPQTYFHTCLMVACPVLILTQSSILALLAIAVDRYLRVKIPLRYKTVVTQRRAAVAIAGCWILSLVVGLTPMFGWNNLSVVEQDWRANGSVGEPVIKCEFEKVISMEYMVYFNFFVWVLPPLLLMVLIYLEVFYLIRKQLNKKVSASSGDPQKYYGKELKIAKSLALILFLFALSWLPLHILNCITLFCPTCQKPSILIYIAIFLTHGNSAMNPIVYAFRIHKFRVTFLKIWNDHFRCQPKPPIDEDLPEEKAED
The experiment in a line: Binding affinity towards the adenosine A1 receptor in cerebral cortices of Sprague-Dawley male rats using [3H]CHA as radioligand.

In the next test the target is Adenosine A2 receptor (Rattus norvegicus, UniProt P29276+P30543).

SMILES strings stand for the structures.

As a reminder, the IC50 is the concentration needed to halve the response being measured. For `CCCN(CCC)c1nc2ccc(F)cc2n2c(C(F)(F)F)nnc12`, the results for the IC50 in the test listed under Rattus norvegicus [1] and against Phosphodiesterase 1 were greater than 10 µM and >> 10 uM, respectively. Besides, the minimal effective dose in the test listed under Rattus norvegicus [2] was greater than 32 mg/kg.

As to `CCc1nnc2c(N)nc3ccccc3n12`, the IC50 in the test listed under Rattus norvegicus [1] was determined as 12 µM; against Phosphodiesterase 1, 2 µM; on Adenosine receptor A1, 0.43 µM; against Adenosine A2 receptor, 0.062 µM. Besides, the minimal effective dose in the test listed under Rattus norvegicus [2] was 3.2 mg/kg.

With `CC(C)Nc1nc2ccc(Cl)cc2n2c(-c3ccccc3)nnc12`, the IC50 was greater than 10 µM in the test filed under Rattus norvegicus [1], greater than 10 µM at Phosphodiesterase 1, 3.2 µM at Adenosine receptor A1 and greater than 100 µM at Adenosine A2 receptor. The minimal effective dose in the test listed under Rattus norvegicus [2] was less than 32 mg/kg.

In the case of `c1ccc2c(c1)nc(N1CCNCC1)c1nncn12`, the results for the IC50 in the test filed under Rattus norvegicus [1], against Phosphodiesterase 1 and on Adenosine receptor A1 were 7 µM, 3 µM and greater than 10 µM, respectively. Besides, the minimal effective dose in the test listed under Rattus norvegicus [2] was greater than 32 mg/kg.

Consider `Nc1nc2ccc(Cl)cc2n2c(C(F)(F)F)nnc12`, for which the IC50 was 2 µM in the test filed under Rattus norvegicus [1], greater than 10 µM against Phosphodiesterase 1, 0.065 µM on Adenosine receptor A1 and 0.044 µM at Adenosine A2 receptor. The minimal effective dose in the test filed under Rattus norvegicus [2] amounted to 3.2 mg/kg.

With `CCN(CC)c1nc2ccccc2n2cnnc12`, the IC50 in the test filed under Rattus norvegicus [1] was 3 µM; against Phosphodiesterase 1, 1.2 µM; at Adenosine receptor A1, 27 µM; against Adenosine A2 receptor it was 42 µM. Also, the minimal effective dose in the test filed under Rattus norvegicus [2] was 10 mg/kg.

Regarding `CCc1nnc2c(NC(C)C)nc3ccc(Cl)cc3n12`, the IC50 in the test listed under Rattus norvegicus [1] came to 0.5 µM; against Phosphodiesterase 1 it was 2 µM; at Adenosine receptor A1 it was 0.06 µM; at Adenosine A2 receptor it was 1.7 µM. Further, the minimal effective dose in the test filed under Rattus norvegicus [2] was no more than 3.2 mg/kg.

On to `CC(C)Nc1nc2ccc(Cl)cc2n2c(C(F)(F)F)nnc12`, for which the IC50 in the test filed under Rattus norvegicus [1] came out at 1 µM; against Phosphodiesterase 1, 1 µM; at Adenosine receptor A1 it was 0.024 µM; on Adenosine A2 receptor, 2.3 µM. Moreover, the minimal effective dose in the test filed under Rattus norvegicus [2] is no more than 3.2 mg/kg.

As to `Clc1ccc2nc(N3CCNCC3)c3nnc(-c4ccccc4)n3c2c1`, the figures for the concentration for half-maximal inhibition (IC50) in the test filed under Rattus norvegicus [1] and at Phosphodiesterase 1 were 10 µM and >> 10 uM, respectively. The minimal effective dose in the test filed under Rattus norvegicus [2] is greater than 32 mg/kg.

With `Cn1c(=O)c2c(ncn2C)n(C)c1=O` [CAFFEINE], the IC50 in the test listed under Rattus norvegicus [1] came to 170 µM; at Phosphodiesterase 1, 70 µM. In the test filed under Rattus norvegicus [2], the minimal effective dose is 3.2 mg/kg.

Regarding `CCc1nnc2c(N(CC)CC)nc3ccccc3n12`, the values for the IC50 in the test filed under Rattus norvegicus [1], at Phosphodiesterase 1 and on Adenosine receptor A1 were 3.7 µM, 0.1 µM and 7.4 µM, respectively. Moreover, the minimal effective dose in the test filed under Rattus norvegicus [2] came out at 3.2 mg/kg.

As to `CCNc1nc2cc(Cl)ccc2n2c(CC)nnc12`, the figures for the IC50 in the test filed under Rattus norvegicus [1] and against Phosphodiesterase 1 were 0.2 µM and greater than 10 µM, respectively. Besides, in the test filed under Rattus norvegicus [2], the minimal effective dose turned out to be 3.2 mg/kg.

In the case of `Nc1nc2ccccc2n2cnnc12`, the IC50 was determined as 4.6 µM on Adenosine receptor A1 and 0.4 µM against Adenosine A2 receptor. Moreover, the minimal effective dose in the test listed under Rattus norvegicus [2] turned out to be 3.2 mg/kg.

Regarding `CCNc1nc2ccccc2n2cnnc12`, the IC50 on Adenosine receptor A1 was 29 µM; on Adenosine A2 receptor it was 110 µM. In addition, the minimal effective dose in the test filed under Rattus norvegicus [2] was 3.2 mg/kg.

Take `CCNc1nc2ccc(OC)cc2n2c(CC)nnc12`: the figures for the IC50 at Adenosine receptor A1 and on Adenosine A2 receptor were 0.71 µM and 4.5 µM, respectively. In the test filed under Rattus norvegicus [2], the minimal effective dose was greater than 32 mg/kg.

Consider `Nc1nc2cc(F)ccc2n2cnnc12`, for which the figures for the IC50 at Adenosine receptor A1 and against Adenosine A2 receptor were 6.1 µM and 0.56 µM, respectively. Moreover, the minimal effective dose in the test filed under Rattus norvegicus [2] is no more than 32 mg/kg.

Turning to `CCc1nnc2c(N)nc3ccc(Cl)cc3n12`, the IC50 amounted to 0.11 µM on Adenosine receptor A1 and 0.028 µM against Adenosine A2 receptor. Also, the minimal effective dose in the test filed under Rattus norvegicus [2] is no more than 3.2 mg/kg.

For `CCc1nnc2c(N)nc3cc(Cl)ccc3n12`, the IC50 on Adenosine receptor A1 stood at 0.075 µM; against Adenosine A2 receptor, 0.029 µM. In the test listed under Rattus norvegicus [2], the minimal effective dose is no more than 3.2 mg/kg.

Regarding `CC(C)Nc1nc2ccccc2n2cnnc12`, the IC50 worked out at 4.1 µM at Adenosine receptor A1 and 17 µM at Adenosine A2 receptor. The minimal effective dose in the test filed under Rattus norvegicus [2] is 3.2 mg/kg.

For the compound `CCNc1nc2cc(F)ccc2n2cnnc12`, the figures for the IC50 at Adenosine receptor A1 and on Adenosine A2 receptor were 11 µM and 26 µM, respectively. In the test listed under Rattus norvegicus [2], the minimal effective dose came to 32 mg/kg.
